Key:
[1] = target: Cytochrome P450 2C9 (Homo sapiens, UniProt P11712); experiment: Inhibitory effect on human recombinant liver cytochrome P450 2C9 expressed in yeast strain
[2] = target: Cytochrome P450 2C19 (Homo sapiens, UniProt P33261); experiment: Inhibitory effect on human recombinant liver cytochrome P450 2C19 expressed in yeast strain
[3] = target: T1, Cytochrome P450 2C8 (Homo sapiens, UniProt P10632); experiment: Inhibitory effect on human recombinant liver Cytochrome P450 2C8 expressed in yeast strain
T1 sequence (P10632 whole entry): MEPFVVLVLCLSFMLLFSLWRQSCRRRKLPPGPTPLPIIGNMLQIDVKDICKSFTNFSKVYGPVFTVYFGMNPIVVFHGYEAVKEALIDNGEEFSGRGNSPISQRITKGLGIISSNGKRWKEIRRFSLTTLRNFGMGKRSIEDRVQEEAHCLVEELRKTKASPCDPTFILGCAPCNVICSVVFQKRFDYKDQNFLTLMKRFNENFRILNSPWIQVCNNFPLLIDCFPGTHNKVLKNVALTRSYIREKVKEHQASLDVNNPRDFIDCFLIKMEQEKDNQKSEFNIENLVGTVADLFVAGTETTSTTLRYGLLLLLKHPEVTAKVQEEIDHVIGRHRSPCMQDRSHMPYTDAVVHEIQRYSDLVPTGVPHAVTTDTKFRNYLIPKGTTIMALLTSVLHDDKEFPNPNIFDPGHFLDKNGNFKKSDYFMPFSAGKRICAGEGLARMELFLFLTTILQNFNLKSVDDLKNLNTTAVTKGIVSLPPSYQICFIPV

[4] = target: T2, Cytochrome P450 2C18 (Homo sapiens, UniProt P33260); experiment: Inhibitory effect on human recombinant liver cytochrome P450 2C18 expressed in yeast strain
T2 sequence (P33260 whole entry): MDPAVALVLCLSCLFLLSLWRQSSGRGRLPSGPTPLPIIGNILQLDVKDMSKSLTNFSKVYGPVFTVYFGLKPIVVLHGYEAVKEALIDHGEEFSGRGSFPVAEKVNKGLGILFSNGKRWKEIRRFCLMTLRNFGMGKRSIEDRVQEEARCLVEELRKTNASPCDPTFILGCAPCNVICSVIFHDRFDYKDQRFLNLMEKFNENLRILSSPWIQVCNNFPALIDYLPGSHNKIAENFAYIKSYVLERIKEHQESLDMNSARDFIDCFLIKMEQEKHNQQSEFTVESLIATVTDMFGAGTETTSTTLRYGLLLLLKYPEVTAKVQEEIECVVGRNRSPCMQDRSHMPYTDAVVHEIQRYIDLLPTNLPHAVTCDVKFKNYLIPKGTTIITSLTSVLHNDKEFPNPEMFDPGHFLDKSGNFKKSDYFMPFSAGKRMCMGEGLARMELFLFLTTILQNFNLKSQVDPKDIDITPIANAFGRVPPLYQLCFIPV

Sequence of Cytochrome P450 2C9 (P11712 whole entry): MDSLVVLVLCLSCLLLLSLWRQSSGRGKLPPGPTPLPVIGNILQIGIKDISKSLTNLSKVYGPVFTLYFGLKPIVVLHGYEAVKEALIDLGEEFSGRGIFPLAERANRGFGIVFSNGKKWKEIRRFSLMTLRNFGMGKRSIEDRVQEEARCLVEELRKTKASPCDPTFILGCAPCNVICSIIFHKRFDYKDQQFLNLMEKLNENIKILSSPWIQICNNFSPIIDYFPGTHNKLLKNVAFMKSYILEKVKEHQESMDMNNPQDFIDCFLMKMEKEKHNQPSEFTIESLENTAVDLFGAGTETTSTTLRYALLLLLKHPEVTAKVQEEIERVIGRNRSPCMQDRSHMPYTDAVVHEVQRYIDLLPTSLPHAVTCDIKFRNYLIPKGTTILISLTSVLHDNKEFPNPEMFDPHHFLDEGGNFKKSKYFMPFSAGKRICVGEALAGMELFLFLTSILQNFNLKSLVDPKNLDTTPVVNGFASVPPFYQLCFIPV
Sequence of Cytochrome P450 2C19 (P33261 whole entry): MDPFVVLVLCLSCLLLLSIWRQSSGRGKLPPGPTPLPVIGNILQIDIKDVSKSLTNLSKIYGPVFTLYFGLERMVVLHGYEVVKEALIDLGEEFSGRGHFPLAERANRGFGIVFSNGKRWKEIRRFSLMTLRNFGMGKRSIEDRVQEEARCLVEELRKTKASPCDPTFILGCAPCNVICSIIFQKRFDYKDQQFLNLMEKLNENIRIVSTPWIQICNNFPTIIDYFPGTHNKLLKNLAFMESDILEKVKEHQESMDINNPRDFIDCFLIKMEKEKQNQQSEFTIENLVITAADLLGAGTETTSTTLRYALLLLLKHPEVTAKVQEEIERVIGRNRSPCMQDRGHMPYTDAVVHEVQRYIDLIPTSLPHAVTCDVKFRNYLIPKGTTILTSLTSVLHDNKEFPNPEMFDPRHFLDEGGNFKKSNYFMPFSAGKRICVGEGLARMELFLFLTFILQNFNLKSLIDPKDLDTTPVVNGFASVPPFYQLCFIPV

| SMILES | IC50 [1] | IC50 [2] | IC50 [3] | IC50 [4] |
| --- | --- | --- | --- | --- |
| CCCN(c1ccnn1-c1ccccc1)S(=O)(=O)c1ccc(N)cc1 | 55 µM | 250 µM | 8 µM | 8 µM |
| Nc1ccc(S(=O)(=O)N(Cc2ccccc2)c2ccnn2-c2ccccc2)cc1 | 55 µM | 45 µM | 15 µM | 7 µM |
| Nc1ccc(S(=O)(=O)N(CCCO)c2ccnn2-c2ccccc2)cc1 | – | – | 22 µM | 30 µM |
| CCCN(c1ccnn1-c1ccccc1)S(=O)(=O)c1ccc(C)cc1 | 20 µM | 10 µM | 15 µM | 20 µM |
| O=[N+]([O-])c1cccc(-c2ccc(S(=O)(=O)N(CCO)c3ccnn3-c3ccccc3)cc2)c1 | 20 µM | 165 µM | > 250 µM | 9 µM |
| CC(C)N(c1ccnn1-c1ccccc1)S(=O)(=O)c1ccc(N)cc1 | 80 µM | 130 µM | 30 µM | 3 µM |
| O=[N+]([O-])c1cccc(-c2ccc(S(=O)(=O)N(CCCCO)c3ccnn3-c3ccccc3)cc2)c1 | – | – | > 250 µM | 4 µM |
| O=[N+]([O-])c1cccc(-c2ccc(S(=O)(=O)N(CCCO)c3ccnn3-c3ccccc3)cc2)c1 | – | – | > 250 µM | 8 µM |
| CCN(c1ccnn1-c1ccccc1)S(=O)(=O)c1ccc(N)cc1 | 90 µM | 225 µM | 13 µM | 7 µM |
| NCCc1ccc(S(=O)(=O)N(CCCO)c2ccnn2-c2ccccc2)cc1 | – | – | > 250 µM | 65 µM |
| CCCCN(c1ccnn1-c1ccccc1)S(=O)(=O)c1ccc(N)cc1 | 50 µM | 60 µM | 4 µM | 6 µM |
| Cc1ccc(S(=O)(=O)N(C)c2ccnn2-c2ccccc2)cc1 | 10 µM | 20 µM | 180 µM | 12 µM |
| C=CCc1ccc(S(=O)(=O)Nc2ccnn2-c2ccccc2)cc1 | 1 µM | 450 µM | 10 µM | 150 µM |
| Nc1cccc(-c2ccc(S(=O)(=O)Nc3ccnn3-c3ccccc3)cc2)c1 | – | – | 8 µM | 20 µM |
| C=CCc1ccc(S(=O)(=O)N(C)c2ccnn2-c2ccccc2)cc1 | > 200 µM | 20 µM | 20 µM | 10 µM |
| CN(c1ccnn1-c1ccccc1)S(=O)(=O)c1ccc(N)cc1 | 100 µM | 200 µM | 50 µM | 15 µM |
| Nc1ccc(S(=O)(=O)Nc2ccnn2-c2ccccc2)cc1 [SULFAPHENAZOLE] | – | – | 130 µM | 60 µM |

Source: ChEMBL document CHEMBL1134658 (J Med Chem, 2001)
